Settings: Liquid, Vibrating tube method

C=CCCC [1-pentene]
Settings | mass density [kg/m3]
283.48 K, 100 kPa | 650.3
283.48 K, 500 kPa | 650.8
283.48 K, 1000 kPa | 651.6
283.48 K, 3000 kPa | 654
283.48 K, 70000 kPa | 708.8
283.48 K, 80000 kPa | 714.8
283.49 K, 5000 kPa | 656.3
283.49 K, 10000 kPa | 661.8
283.49 K, 15000 kPa | 666.9
283.49 K, 20000 kPa | 671.7
283.49 K, 25000 kPa | 676.2
283.49 K, 30000 kPa | 680.4
283.49 K, 35000 kPa | 684.5
283.49 K, 40000 kPa | 688.4
283.49 K, 45000 kPa | 692.1
283.49 K, 50000 kPa | 695.7
283.49 K, 55000 kPa | 699.1
283.49 K, 60000 kPa | 702.5
283.49 K, 90000 kPa | 720.4
283.49 K, 100000 kPa | 725.7
293.42 K, 100 kPa | 640.1
293.42 K, 500 kPa | 640.7
293.42 K, 1000 kPa | 641.4
293.42 K, 3000 kPa | 644
293.42 K, 5000 kPa | 646.5
293.42 K, 10000 kPa | 652.4
293.42 K, 40000 kPa | 680.8
293.42 K, 55000 kPa | 692
293.42 K, 60000 kPa | 695.5
293.42 K, 70000 kPa | 702.2
293.42 K, 80000 kPa | 708.3
293.42 K, 90000 kPa | 714.1
293.42 K, 100000 kPa | 719.6
293.43 K, 15000 kPa | 657.9
293.43 K, 20000 kPa | 663
293.43 K, 25000 kPa | 667.8
293.43 K, 35000 kPa | 676.7
293.43 K, 45000 kPa | 684.7
293.43 K, 50000 kPa | 688.4
293.44 K, 30000 kPa | 672.3
303.33 K, 100 kPa | 629.8
303.33 K, 1000 kPa | 631.1
303.33 K, 3000 kPa | 634
303.33 K, 35000 kPa | 668.9
303.34 K, 5000 kPa | 636.7
303.34 K, 10000 kPa | 643.1
303.34 K, 15000 kPa | 649
303.34 K, 20000 kPa | 654.5
303.34 K, 25000 kPa | 659.6
303.34 K, 30000 kPa | 664.4
303.34 K, 40000 kPa | 673.2
303.34 K, 45000 kPa | 677.3
303.34 K, 50000 kPa | 681.2
303.34 K, 80000 kPa | 702
303.34 K, 90000 kPa | 707.9
303.35 K, 55000 kPa | 685
303.35 K, 60000 kPa | 688.6
303.35 K, 70000 kPa | 695.6
303.35 K, 100000 kPa | 713.6
313.27 K, 500 kPa | 620.4
313.27 K, 3000 kPa | 624.5
313.27 K, 5000 kPa | 627.5
313.27 K, 10000 kPa | 634.4
313.28 K, 1000 kPa | 621.3
313.28 K, 15000 kPa | 640.8
313.28 K, 20000 kPa | 646.7
313.28 K, 25000 kPa | 652.1
313.28 K, 30000 kPa | 657.2
313.28 K, 45000 kPa | 670.8
313.28 K, 50000 kPa | 674.9
313.28 K, 70000 kPa | 689.9
313.29 K, 35000 kPa | 661.9
313.29 K, 40000 kPa | 666.6
313.29 K, 55000 kPa | 678.8
313.29 K, 60000 kPa | 682.6
313.29 K, 80000 kPa | 696.4
313.29 K, 90000 kPa | 702.6
313.29 K, 100000 kPa | 708.4
323.18 K, 500 kPa | 608.6
323.18 K, 1000 kPa | 609.3
323.18 K, 3000 kPa | 612.8
323.18 K, 5000 kPa | 616.1
323.19 K, 10000 kPa | 623.7
323.19 K, 15000 kPa | 630.6
323.19 K, 20000 kPa | 636.9
323.19 K, 25000 kPa | 642.7
323.19 K, 30000 kPa | 648.1
323.19 K, 35000 kPa | 653.1
323.19 K, 40000 kPa | 657.9
323.19 K, 45000 kPa | 662.4
323.19 K, 50000 kPa | 666.7
323.19 K, 55000 kPa | 670.8
323.19 K, 60000 kPa | 674.7
323.19 K, 70000 kPa | 682.2
323.19 K, 80000 kPa | 689.1
323.19 K, 90000 kPa | 695.4
323.19 K, 100000 kPa | 701.5
333.04 K, 500 kPa | 597.2
333.04 K, 1000 kPa | 598.1
333.04 K, 3000 kPa | 601.9
333.04 K, 5000 kPa | 605.6
333.04 K, 10000 kPa | 613.9
333.05 K, 15000 kPa | 621.4
333.05 K, 20000 kPa | 628.1
333.05 K, 25000 kPa | 634.3
333.05 K, 30000 kPa | 640
333.05 K, 35000 kPa | 645.3
333.05 K, 40000 kPa | 650.4
333.05 K, 45000 kPa | 655.1
333.05 K, 50000 kPa | 659.6
333.05 K, 55000 kPa | 663.9
333.05 K, 60000 kPa | 668
333.05 K, 70000 kPa | 675.8
333.05 K, 100000 kPa | 695.8
333.06 K, 80000 kPa | 683
333.06 K, 90000 kPa | 689.6
342.94 K, 500 kPa | 585.8
342.94 K, 1000 kPa | 586.8
342.94 K, 90000 kPa | 684
342.95 K, 3000 kPa | 591.2
342.95 K, 5000 kPa | 595.3
342.95 K, 10000 kPa | 604.4
342.95 K, 70000 kPa | 669.9
342.95 K, 80000 kPa | 677.2
342.95 K, 100000 kPa | 690.4
342.96 K, 15000 kPa | 612.5
342.96 K, 20000 kPa | 619.8
342.96 K, 25000 kPa | 626.3
342.96 K, 30000 kPa | 632.4
342.96 K, 35000 kPa | 638.1
342.96 K, 40000 kPa | 643.4
342.96 K, 45000 kPa | 648.4
342.96 K, 50000 kPa | 653
342.96 K, 55000 kPa | 657.5
342.96 K, 60000 kPa | 661.8
352.82 K, 500 kPa | 574.2
352.82 K, 1000 kPa | 575.6
352.82 K, 3000 kPa | 580.5
352.82 K, 5000 kPa | 585.1
352.82 K, 10000 kPa | 595.2
352.83 K, 15000 kPa | 603.9
352.83 K, 20000 kPa | 611.7
352.83 K, 25000 kPa | 618.7
352.83 K, 30000 kPa | 625.2
352.83 K, 35000 kPa | 631.2
352.83 K, 40000 kPa | 636.7
352.83 K, 45000 kPa | 641.9
352.83 K, 50000 kPa | 646.9
352.83 K, 55000 kPa | 651.5
352.83 K, 70000 kPa | 664.3
352.83 K, 80000 kPa | 671.9
352.83 K, 90000 kPa | 679
352.83 K, 100000 kPa | 685.6
352.84 K, 60000 kPa | 655.9
362.67 K, 500 kPa | 560.5
362.67 K, 1000 kPa | 561.8
362.67 K, 3000 kPa | 567.4
362.67 K, 80000 kPa | 664.9
362.67 K, 100000 kPa | 679
362.68 K, 5000 kPa | 572.6
362.68 K, 10000 kPa | 583.8
362.68 K, 15000 kPa | 593.3
362.68 K, 20000 kPa | 601.7
362.68 K, 25000 kPa | 609.2
362.68 K, 30000 kPa | 616.1
362.68 K, 35000 kPa | 622.4
362.68 K, 40000 kPa | 628.2
362.68 K, 45000 kPa | 633.7
362.68 K, 50000 kPa | 638.9
362.68 K, 55000 kPa | 643.7
362.68 K, 60000 kPa | 648.3
362.68 K, 70000 kPa | 657.1
362.68 K, 90000 kPa | 672.2
